Measurements published in PMC5823789 (Journal of medicinal chemistry, 2018).
Entries after “also recorded” stand apart in the source; their conditions may differ. Blank lines part the entries; values can stand above or below the molecule they belong to.

Tests used:
hNNMT [1] = biological target: T1, hNNMT (Homo sapiens, UniProt P40261); experiment: Isothermal titration calorimetry; assay type: binding
T1 sequence (P40261 1-264): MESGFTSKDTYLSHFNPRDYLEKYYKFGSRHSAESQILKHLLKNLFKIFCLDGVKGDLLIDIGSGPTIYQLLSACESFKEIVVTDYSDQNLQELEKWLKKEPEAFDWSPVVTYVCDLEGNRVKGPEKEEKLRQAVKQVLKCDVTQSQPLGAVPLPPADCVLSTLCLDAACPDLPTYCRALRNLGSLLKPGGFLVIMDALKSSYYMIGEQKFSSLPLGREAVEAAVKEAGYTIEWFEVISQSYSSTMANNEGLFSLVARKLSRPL

BCDIN3D = biological target: T2, BCDIN3D (Homo sapiens, UniProt Q7Z5W3); experiment: Selectivity assay, scintillation proximity assay; assay type: biochemical
T2 sequence (Q7Z5W3 1-292): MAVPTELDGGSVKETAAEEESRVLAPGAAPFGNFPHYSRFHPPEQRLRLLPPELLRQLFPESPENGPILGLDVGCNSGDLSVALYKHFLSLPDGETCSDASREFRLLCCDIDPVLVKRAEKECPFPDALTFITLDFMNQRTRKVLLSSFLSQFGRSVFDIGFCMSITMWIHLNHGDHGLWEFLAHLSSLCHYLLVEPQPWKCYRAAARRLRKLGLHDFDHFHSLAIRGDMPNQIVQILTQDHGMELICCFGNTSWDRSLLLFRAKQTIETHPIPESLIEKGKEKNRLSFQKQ

PRMT7 = biological target: T3, PRMT7 (Homo sapiens, UniProt Q9NVM4); experiment: Selectivity assay, scintillation proximity assay; assay type: biochemical
T3 sequence (Q9NVM4 1-692): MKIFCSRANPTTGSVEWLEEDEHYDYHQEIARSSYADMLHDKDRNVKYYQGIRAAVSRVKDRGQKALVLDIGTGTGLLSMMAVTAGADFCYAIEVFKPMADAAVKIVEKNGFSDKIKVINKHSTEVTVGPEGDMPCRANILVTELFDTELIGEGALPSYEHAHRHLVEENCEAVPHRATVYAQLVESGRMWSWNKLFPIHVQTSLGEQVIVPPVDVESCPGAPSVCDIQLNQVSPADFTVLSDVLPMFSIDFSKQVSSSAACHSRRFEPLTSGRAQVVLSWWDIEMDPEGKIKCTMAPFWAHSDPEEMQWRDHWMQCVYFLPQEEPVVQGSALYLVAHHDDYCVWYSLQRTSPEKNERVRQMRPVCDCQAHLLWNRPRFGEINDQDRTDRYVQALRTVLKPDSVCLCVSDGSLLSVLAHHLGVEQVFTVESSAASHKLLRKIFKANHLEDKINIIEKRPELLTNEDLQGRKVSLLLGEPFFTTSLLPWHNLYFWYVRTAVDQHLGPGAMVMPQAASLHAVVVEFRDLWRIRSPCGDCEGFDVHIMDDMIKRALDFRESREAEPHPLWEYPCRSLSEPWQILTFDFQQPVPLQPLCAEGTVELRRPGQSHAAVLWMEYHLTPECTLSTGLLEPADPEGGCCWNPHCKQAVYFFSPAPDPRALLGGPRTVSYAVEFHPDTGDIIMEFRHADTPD

hNNMT [2] = biological target: T1, hNNMT; experiment: SAHH-coupled fluorescent assay of NNMT methyltransferase activity; assay type: biochemical
SMYD2 = SMYD2 (Homo sapiens, UniProt Q9NRG4); experiment: Selectivity assay, scintillation proximity assay; assay type: biochemical
DOT1L = DOT1L (Homo sapiens, UniProt Q8TEK3); experiment: Selectivity assay, filter-based 3H-SAM methyltransferase assay; assay type: biochemical
[3] = substrate: NC(=O)c1cccnc1; experiment: purified protein, by the assay type; details: other: SAHH-coupled assay; kcat 4.1 ± 0.2 min^-1; pH 7.5

Sequence of DOT1L (Q8TEK3 whole entry, species assumed): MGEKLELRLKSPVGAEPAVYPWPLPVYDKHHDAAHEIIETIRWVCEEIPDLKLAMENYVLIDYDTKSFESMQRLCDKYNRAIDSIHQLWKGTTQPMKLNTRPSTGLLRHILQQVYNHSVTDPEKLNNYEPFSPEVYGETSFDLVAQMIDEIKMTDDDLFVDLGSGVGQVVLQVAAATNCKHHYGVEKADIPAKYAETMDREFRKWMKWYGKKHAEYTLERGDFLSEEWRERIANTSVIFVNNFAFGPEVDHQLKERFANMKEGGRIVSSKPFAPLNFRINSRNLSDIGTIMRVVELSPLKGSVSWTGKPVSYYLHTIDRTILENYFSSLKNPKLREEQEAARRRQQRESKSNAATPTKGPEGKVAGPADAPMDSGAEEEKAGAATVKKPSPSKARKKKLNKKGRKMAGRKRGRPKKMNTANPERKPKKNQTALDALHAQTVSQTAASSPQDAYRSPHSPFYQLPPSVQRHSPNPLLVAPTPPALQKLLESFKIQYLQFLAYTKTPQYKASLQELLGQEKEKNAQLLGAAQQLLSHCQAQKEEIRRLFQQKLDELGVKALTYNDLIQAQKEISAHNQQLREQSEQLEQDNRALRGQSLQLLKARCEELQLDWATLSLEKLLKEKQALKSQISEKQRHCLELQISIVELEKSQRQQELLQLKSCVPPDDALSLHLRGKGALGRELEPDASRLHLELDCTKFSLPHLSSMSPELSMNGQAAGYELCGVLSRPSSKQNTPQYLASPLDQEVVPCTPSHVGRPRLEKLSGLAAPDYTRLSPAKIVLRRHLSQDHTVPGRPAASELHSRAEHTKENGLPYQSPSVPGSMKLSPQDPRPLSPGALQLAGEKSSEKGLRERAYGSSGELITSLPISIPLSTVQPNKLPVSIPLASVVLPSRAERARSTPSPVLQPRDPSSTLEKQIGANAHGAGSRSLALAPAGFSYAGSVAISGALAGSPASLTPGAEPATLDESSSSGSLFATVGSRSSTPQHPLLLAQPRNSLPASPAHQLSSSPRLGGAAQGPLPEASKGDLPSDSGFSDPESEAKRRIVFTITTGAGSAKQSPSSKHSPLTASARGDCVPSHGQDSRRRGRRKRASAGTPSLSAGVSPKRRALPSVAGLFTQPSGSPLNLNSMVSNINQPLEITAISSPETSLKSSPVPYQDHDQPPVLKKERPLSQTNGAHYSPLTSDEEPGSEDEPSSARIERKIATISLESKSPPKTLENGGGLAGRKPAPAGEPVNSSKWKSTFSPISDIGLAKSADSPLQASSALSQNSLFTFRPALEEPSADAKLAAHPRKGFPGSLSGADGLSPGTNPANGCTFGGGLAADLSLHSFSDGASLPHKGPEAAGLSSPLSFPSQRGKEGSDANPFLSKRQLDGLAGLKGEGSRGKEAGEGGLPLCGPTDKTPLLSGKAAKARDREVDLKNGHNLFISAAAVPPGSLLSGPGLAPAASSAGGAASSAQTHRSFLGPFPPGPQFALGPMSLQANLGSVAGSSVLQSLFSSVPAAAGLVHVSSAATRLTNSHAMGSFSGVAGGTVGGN
Sequence of SMYD2 (Q9NRG4 whole entry, species assumed): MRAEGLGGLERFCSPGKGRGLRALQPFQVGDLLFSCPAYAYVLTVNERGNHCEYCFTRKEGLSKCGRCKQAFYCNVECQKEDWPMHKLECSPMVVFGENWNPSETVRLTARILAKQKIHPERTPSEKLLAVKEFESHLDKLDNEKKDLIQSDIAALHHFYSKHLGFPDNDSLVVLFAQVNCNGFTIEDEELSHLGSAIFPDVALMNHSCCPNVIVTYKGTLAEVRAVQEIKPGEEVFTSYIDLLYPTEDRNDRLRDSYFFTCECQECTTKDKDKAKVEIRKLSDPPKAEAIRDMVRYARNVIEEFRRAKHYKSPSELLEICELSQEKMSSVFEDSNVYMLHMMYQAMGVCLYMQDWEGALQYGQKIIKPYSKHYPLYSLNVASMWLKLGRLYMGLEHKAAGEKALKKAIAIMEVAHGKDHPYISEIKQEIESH

Molecule: C[S+](CC[C@H](N)C(=O)O)C[C@H]1O[C@@H](n2cnc3c(N)ncnc32)[C@H](O)[C@@H]1O (stereo partly drawn) [SAM, S-5′-adenosyl-L-methionine, reference compound]
Km (hNNMT [2]; read-out: Km for NNMT): 24 ± 6.8 µM
Kd (hNNMT [1]; read-out: Kd for binding to hNNMT (ITC), 25 °C, 50 mM Tris pH 8.0, 100 mM NaCl): 56.4 ± 9.5 µM

B1: hNNMT (Homo sapiens) (protein)
chain: T1 sequence (P40261 1-264)
Km [3]: 20 ± 3 µM

More lines, main results first:

Binding to hNNMT in ITC in the absence of the cofactor (hNNMT [1]; no cofactor): not observed
Molecule: NC(=O)c1cccnc1 [nicotinamide]

Hill slope, BCDIN3D (BCDIN3D): 1.3
Hill slope, PRMT7 (PRMT7): 1.1
Mechanism of inhibition with respect to substrate nicotinamide (hNNMT [2]; 250 μM SAM, nicotinamide varied 12.5 to 200 μM, Lineweaver-Burk): noncompetitive inhibition
Hill slope, SMYD2 (SMYD2): 0.6
Hill slope, DOT1L (DOT1L): 1.1
Molecule: NC(=O)c1cccc(CCN(CCC[C@H](N)C(=O)O)C[C@H]2O[C@@H](n3cnc4c(N)ncnc43)[C@H](O)[C@@H]2O)c1 [compound 6, (S)-2-Amino-5-((((2R,3S,4R,5R)-5-(6-amino-9H-purin-9-yl)-3,4-di-hydroxytetrahydrofuran-2-yl)methyl)(3-carbamoylphenethyl)-amino)pentanoic acid]
Mechanism of inhibition with respect to cofactor SAM (hNNMT [2]; 200 μM nicotinamide, SAM varied 12.5 to 200 μM, Lineweaver-Burk): SAM competitive; also recorded: competitive inhibition
